Experimental data: ChEMBL document CHEMBL3885881, “DrugMatrix”

Species: Rattus norvegicus
Assay: DrugMatrix - Regimen: Daily Repeat
Format: toxicity, organism-based, Sprague-Dawley
Design: regimen Daily Repeat, gender Male, age 6-8 weeks
Settings: in vivo, po, route oral GAVAGE, vehicle 100 % WATER; for ABSOLUTE BASOPHIL / ABSOLUTE EOSINOPHIL / ABSOLUTE LYMPHOCYTE / ABSOLUTE MONOCYTE / ABSOLUTE SEGMENTED NEUTROPHIL / BASOPHIL / EOSINOPHIL / ERYTHROCYTE COUNT / HEMATOCRIT / HEMOGLOBIN / LEUKOCYTE COUNT / LYMPHOCYTE / MEAN CORPUSCULAR HEMOGLOBIN / MEAN CORPUSCULAR HEMOGLOBIN CONCENTRATION / MEAN CORPUSCULAR VOLUME / MONOCYTE / NEUTROPHIL / NUCLEATED RED BLOOD CELLS / PLATELET COUNT: tissue Blood; for ALANINE AMINOTRANSFERASE / ALBUMIN / ALKALINE PHOSPHATASE / ASPARTATE AMINOTRANSFERASE / BLOOD UREA NITROGEN / CARBON DIOXIDE / CHLORIDE / CHOLESTEROL / CREATINE PHOSPHOKINASE / CREATININE / GLUCOSE / LACTATE DEHYDROGENASE / LIPASE / PHOSPHORUS / POTASSIUM / SODIUM / TOTAL BILIRUBIN / TOTAL PROTEIN / URIC ACID: tissue Plasma
[1] = 0 mg/kg, 72 h, dose level Control, time 3 day
[2] = 0 mg/kg, 120 h, dose level Control, time 5 day
[3] = 150 mg/kg, 72 h, dose level Low, time 3 day
[4] = 150 mg/kg, 120 h, dose level Low, time 5 day

## Cc1c(N(C)CS(=O)(=O)[O-])c(=O)n(-c2ccccc2)n1C.[Na+] [DIPYRONE SODIUM]
[1]
  ABSOLUTE BASOPHIL: 0 CELLS/uL
  ABSOLUTE EOSINOPHIL: 25 CELLS/uL
  ABSOLUTE LYMPHOCYTE: 14357 CELLS/uL
  ABSOLUTE MONOCYTE: 456.33 CELLS/uL
  ABSOLUTE SEGMENTED NEUTROPHIL: 1461.67 CELLS/uL
  BASOPHIL: 0%
  EOSINOPHIL: 0.17%
  ERYTHROCYTE COUNT: 5.85 x10E6/uL
  HEMATOCRIT: 37.62%
  HEMOGLOBIN: 13.87 G/DL
  LEUKOCYTE COUNT: 16.3 x10E3/uL
  LYMPHOCYTE: 88%
  MEAN CORPUSCULAR HEMOGLOBIN: 23.68 pg
  MEAN CORPUSCULAR HEMOGLOBIN CONCENTRATION: 36.88 G/DL
  MEAN CORPUSCULAR VOLUME: 64.23 fL
  MONOCYTE: 2.83%
  NEUTROPHIL: 9%
  NUCLEATED RED BLOOD CELLS: 0 /100WBC
  PLATELET COUNT: 1125.33 x10E3/uL
  ALANINE AMINOTRANSFERASE: 49.67 u/L
  ALBUMIN: 4.23 G/DL
  ALKALINE PHOSPHATASE: 400.83 u/L
  ASPARTATE AMINOTRANSFERASE: 89.17 u/L
  BLOOD UREA NITROGEN: 16 mg/dL
  CARBON DIOXIDE: 31.83 mmol/L
  CHLORIDE: 99 MEQ/L
  CHOLESTEROL: 76 mg/dL
  CREATINE PHOSPHOKINASE: 777.67 u/L
  CREATININE: 0.22 mg/dL
  GLUCOSE: 158.33 mg/dL
  LACTATE DEHYDROGENASE: 186.17 u/L
  LIPASE: 9.33 u/L
  PHOSPHORUS: 12.95 mg/dL
  POTASSIUM: 7.01 MEQ/L
  SODIUM: 141.53 MEQ/L
  TOTAL BILIRUBIN: 0.18 mg/dL
  TOTAL PROTEIN: 6.08 G/DL
  URIC ACID: 1.77 mg/dL
[2]
  ABSOLUTE BASOPHIL: 0 CELLS/uL
  ABSOLUTE EOSINOPHIL: 0 CELLS/uL
  ABSOLUTE LYMPHOCYTE: 8994.5 CELLS/uL
  ABSOLUTE MONOCYTE: 122.33 CELLS/uL
  ABSOLUTE SEGMENTED NEUTROPHIL: 666.5 CELLS/uL
  BASOPHIL: 0%
  EOSINOPHIL: 0%
  ERYTHROCYTE COUNT: 5.74 x10E6/uL
  HEMATOCRIT: 35.17%
  HEMOGLOBIN: 13.28 G/DL
  LEUKOCYTE COUNT: 9.78 x10E3/uL
  LYMPHOCYTE: 92.33%
  MEAN CORPUSCULAR HEMOGLOBIN: 23.15 pg
  MEAN CORPUSCULAR HEMOGLOBIN CONCENTRATION: 37.8 G/DL
  MEAN CORPUSCULAR VOLUME: 61.27 fL
  MONOCYTE: 1.33%
  NEUTROPHIL: 6.33%
  NUCLEATED RED BLOOD CELLS: 0 /100WBC
  PLATELET COUNT: 1117 x10E3/uL
  ALANINE AMINOTRANSFERASE: 47.83 u/L
  ALBUMIN: 4.33 G/DL
  ALKALINE PHOSPHATASE: 414.5 u/L
  ASPARTATE AMINOTRANSFERASE: 77.5 u/L
  BLOOD UREA NITROGEN: 17 mg/dL
  CARBON DIOXIDE: 32.33 mmol/L
  CHLORIDE: 99.33 MEQ/L
  CHOLESTEROL: 76.33 mg/dL
  CREATINE PHOSPHOKINASE: 363.67 u/L
  CREATININE: 0.25 mg/dL
  GLUCOSE: 173.5 mg/dL
  LACTATE DEHYDROGENASE: 129.33 u/L
  LIPASE: 9.17 u/L
  PHOSPHORUS: 11.52 mg/dL
  POTASSIUM: 5.73 MEQ/L
  SODIUM: 143.85 MEQ/L
  TOTAL BILIRUBIN: 0.2 mg/dL
  TOTAL PROTEIN: 6.43 G/DL
  URIC ACID: 0.97 mg/dL
[3]
  ABSOLUTE BASOPHIL: 0 CELLS/uL
  ABSOLUTE EOSINOPHIL: 55.67 CELLS/uL
  ABSOLUTE LYMPHOCYTE: 16817.67 CELLS/uL
  ABSOLUTE MONOCYTE: 567 CELLS/uL
  ABSOLUTE SEGMENTED NEUTROPHIL: 1026.33 CELLS/uL
  BASOPHIL: 0%
  EOSINOPHIL: 0.33%
  ERYTHROCYTE COUNT: 5.75 x10E6/uL
  HEMATOCRIT: 36.5%
  HEMOGLOBIN: 13.47 G/DL
  LEUKOCYTE COUNT: 18.47 x10E3/uL
  LYMPHOCYTE: 91%
  MEAN CORPUSCULAR HEMOGLOBIN: 23.47 pg
  MEAN CORPUSCULAR HEMOGLOBIN CONCENTRATION: 36.9 G/DL
  MEAN CORPUSCULAR VOLUME: 63.5 fL
  MONOCYTE: 3%
  NEUTROPHIL: 5.67%
  NUCLEATED RED BLOOD CELLS: 0 /100WBC
  PLATELET COUNT: 1215.67 x10E3/uL
  ALANINE AMINOTRANSFERASE: 44.67 u/L
  ALBUMIN: 4.4 G/DL
  ALKALINE PHOSPHATASE: 361 u/L
  ASPARTATE AMINOTRANSFERASE: 86 u/L
  BLOOD UREA NITROGEN: 16 mg/dL
  CARBON DIOXIDE: 33 mmol/L
  CHLORIDE: 100.33 MEQ/L
  CHOLESTEROL: 87 mg/dL
  CREATINE PHOSPHOKINASE: 700 u/L
  CREATININE: 0.19 mg/dL
  GLUCOSE: 142.33 mg/dL
  LACTATE DEHYDROGENASE: 212 u/L
  LIPASE: 9.33 u/L
  PHOSPHORUS: 13.33 mg/dL
  POTASSIUM: 6.6 MEQ/L
  SODIUM: 143.13 MEQ/L
  TOTAL BILIRUBIN: 0.2 mg/dL
  TOTAL PROTEIN: 6.2 G/DL
  URIC ACID: 1.67 mg/dL
[4]
  ABSOLUTE BASOPHIL: 0 CELLS/uL
  ABSOLUTE EOSINOPHIL: 0 CELLS/uL
  ABSOLUTE LYMPHOCYTE: 8863.67 CELLS/uL
  ABSOLUTE MONOCYTE: 61.67 CELLS/uL
  ABSOLUTE SEGMENTED NEUTROPHIL: 541.33 CELLS/uL
  BASOPHIL: 0%
  EOSINOPHIL: 0%
  ERYTHROCYTE COUNT: 5.85 x10E6/uL
  HEMATOCRIT: 36.3%
  HEMOGLOBIN: 13.67 G/DL
  LEUKOCYTE COUNT: 9.47 x10E3/uL
  LYMPHOCYTE: 93.33%
  MEAN CORPUSCULAR HEMOGLOBIN: 23.37 pg
  MEAN CORPUSCULAR HEMOGLOBIN CONCENTRATION: 37.63 G/DL
  MEAN CORPUSCULAR VOLUME: 62 fL
  MONOCYTE: 0.67%
  NEUTROPHIL: 6%
  NUCLEATED RED BLOOD CELLS: 0 /100WBC
  PLATELET COUNT: 1342 x10E3/uL
  ALANINE AMINOTRANSFERASE: 52.67 u/L
  ALBUMIN: 4.23 G/DL
  ALKALINE PHOSPHATASE: 379 u/L
  ASPARTATE AMINOTRANSFERASE: 72.33 u/L
  BLOOD UREA NITROGEN: 16.33 mg/dL
  CARBON DIOXIDE: 34.67 mmol/L
  CHLORIDE: 100.67 MEQ/L
  CHOLESTEROL: 67 mg/dL
  CREATINE PHOSPHOKINASE: 175.33 u/L
  CREATININE: 0.2 mg/dL
  GLUCOSE: 135 mg/dL
  LACTATE DEHYDROGENASE: 123 u/L
  LIPASE: 8.67 u/L
  PHOSPHORUS: 12.43 mg/dL
  POTASSIUM: 6.37 MEQ/L
  SODIUM: 145.67 MEQ/L
  TOTAL BILIRUBIN: 0.17 mg/dL
  TOTAL PROTEIN: 6.17 G/DL
  URIC ACID: 1.3 mg/dL
